Experimental data taken from PMC8929358 (Pharmacology Research & Perspectives, 2021).

How the values were obtained:
Format in all cases: in vitro ADME
[1] = Glucuronidation of opicapone in human liver microsomes; conditions: human liver microsomes (HLM), pH 7.5
[2] = target: T1, UGT 1A1 (Homo sapiens, UniProt P22309); assay: Glucuronidation of opicapone by recombinant UGT1A1; conditions: 20 μM opicapone
T1 sequence (P22309 26-533): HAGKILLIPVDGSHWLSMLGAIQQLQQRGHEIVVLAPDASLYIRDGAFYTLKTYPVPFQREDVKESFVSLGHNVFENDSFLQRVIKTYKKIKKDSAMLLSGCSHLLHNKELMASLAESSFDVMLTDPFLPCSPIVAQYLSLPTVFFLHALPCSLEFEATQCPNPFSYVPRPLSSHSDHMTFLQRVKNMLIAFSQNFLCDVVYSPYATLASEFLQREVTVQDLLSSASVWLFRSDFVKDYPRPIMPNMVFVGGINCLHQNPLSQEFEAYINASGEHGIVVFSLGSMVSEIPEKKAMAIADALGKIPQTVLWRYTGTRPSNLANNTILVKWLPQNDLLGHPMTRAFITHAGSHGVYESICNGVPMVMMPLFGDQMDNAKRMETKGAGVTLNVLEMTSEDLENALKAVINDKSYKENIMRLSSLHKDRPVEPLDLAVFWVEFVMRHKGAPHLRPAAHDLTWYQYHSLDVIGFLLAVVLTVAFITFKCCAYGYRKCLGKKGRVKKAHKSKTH

[3] = target: T2, UGT 1A3 (Homo sapiens, UniProt P35503); assay: Glucuronidation of opicapone by recombinant UGT1A3; conditions: 20 μM opicapone
T2 sequence (P35503 29-534): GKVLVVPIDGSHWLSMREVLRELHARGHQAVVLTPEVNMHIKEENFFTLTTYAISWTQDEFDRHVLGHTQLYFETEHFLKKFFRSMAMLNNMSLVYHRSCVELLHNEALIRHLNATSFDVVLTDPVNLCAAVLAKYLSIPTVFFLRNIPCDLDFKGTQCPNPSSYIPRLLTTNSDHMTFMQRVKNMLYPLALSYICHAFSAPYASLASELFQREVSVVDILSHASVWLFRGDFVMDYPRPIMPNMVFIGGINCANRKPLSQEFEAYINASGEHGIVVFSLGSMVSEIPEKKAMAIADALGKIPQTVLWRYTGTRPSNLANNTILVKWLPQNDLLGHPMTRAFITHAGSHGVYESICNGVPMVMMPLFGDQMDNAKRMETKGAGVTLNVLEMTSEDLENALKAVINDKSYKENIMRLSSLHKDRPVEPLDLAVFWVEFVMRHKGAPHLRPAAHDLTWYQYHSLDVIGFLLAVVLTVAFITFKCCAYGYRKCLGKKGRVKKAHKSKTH

[4] = target: T3, UGT 2B4 (Homo sapiens, UniProt P06133); assay: Glucuronidation of opicapone by recombinant UGT2B4; conditions: 20 μM opicapone; incubation period of 60 min
T3 sequence (P06133 24-528): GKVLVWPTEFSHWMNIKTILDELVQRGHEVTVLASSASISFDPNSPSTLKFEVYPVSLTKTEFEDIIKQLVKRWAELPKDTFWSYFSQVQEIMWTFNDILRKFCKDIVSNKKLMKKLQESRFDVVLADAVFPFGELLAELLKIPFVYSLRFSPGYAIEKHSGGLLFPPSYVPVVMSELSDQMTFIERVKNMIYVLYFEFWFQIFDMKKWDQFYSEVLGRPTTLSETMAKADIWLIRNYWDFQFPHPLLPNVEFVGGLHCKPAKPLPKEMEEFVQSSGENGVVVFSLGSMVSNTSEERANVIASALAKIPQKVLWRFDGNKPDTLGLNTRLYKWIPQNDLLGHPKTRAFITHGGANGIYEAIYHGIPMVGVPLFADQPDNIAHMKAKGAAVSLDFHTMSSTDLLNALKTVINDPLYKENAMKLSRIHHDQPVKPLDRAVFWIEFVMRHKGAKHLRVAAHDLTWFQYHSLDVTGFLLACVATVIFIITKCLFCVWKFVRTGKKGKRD

[5] = target: T4, UGT 2B15 (Homo sapiens, UniProt P54855); assay: Glucuronidation of opicapone by recombinant UGT2B15; conditions: 20 μM opicapone
T4 sequence (P54855 24-530): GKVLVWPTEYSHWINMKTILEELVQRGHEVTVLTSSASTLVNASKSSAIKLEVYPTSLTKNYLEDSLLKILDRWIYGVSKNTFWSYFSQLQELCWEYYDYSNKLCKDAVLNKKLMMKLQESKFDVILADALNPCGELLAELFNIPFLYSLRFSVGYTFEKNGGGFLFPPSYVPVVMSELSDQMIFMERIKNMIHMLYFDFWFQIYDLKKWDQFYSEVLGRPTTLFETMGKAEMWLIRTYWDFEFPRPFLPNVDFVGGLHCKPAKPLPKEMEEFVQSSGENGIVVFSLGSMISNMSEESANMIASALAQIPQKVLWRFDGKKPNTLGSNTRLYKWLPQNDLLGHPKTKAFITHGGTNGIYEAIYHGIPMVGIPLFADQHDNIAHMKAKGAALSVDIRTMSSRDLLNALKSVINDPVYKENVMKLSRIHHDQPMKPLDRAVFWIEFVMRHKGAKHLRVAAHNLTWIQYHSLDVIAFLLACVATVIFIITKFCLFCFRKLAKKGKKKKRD

## Cc1c(Cl)c(C)[n+]([O-])c(Cl)c1-c1noc(-c2cc(O)c(O)c([N+](=O)[O-])c2)n1 [opicapone, 2,5‐dichloro‐3‐(5‐(3,4‐dihydroxy‐5‐nitrophenyl)‐1,2,4‐oxadiazol‐3‐yl)‐4,6‐dimethylpyridine 1‐oxide]
[1]
  Km: 27.9 ± 6.4 µM
[2]
  Formation of BIA 9-1106 (screening): little amounts
[3]
  Formation of BIA 9-1106 (screening): little amounts
[4]
  Metabolite formation (screening): No metabolite formation was detected
[5]
  Formation of BIA 9-1106 (screening): little amounts
